Test results taken from patent US20260224588A1, “BENZODIAZEPINONE-DERIVED INHIBITORS OF EGFR AND HER2” (The Research Foundation for the State University of New York, priority 2023, published 2026).

Experiments:
Experiment in all cases: KINOMEscan
Type in all cases: binding
Details in all cases: 1 μM of compound 4; read-out: POC
ABL1-phosphorylated = target: T1, ABL1-phosphorylated (Homo sapiens, UniProt P00519)
T1 construct: purchased Eurofins DiscoverX Corporation

ASK2 = ASK2 (Homo sapiens, UniProt O95382)
BTK = BTK (Homo sapiens, UniProt Q06187)
CAMK2D = CAMK2D (Homo sapiens, UniProt Q13557)
CLK4 = CLK4 (Homo sapiens, UniProt Q9HAZ1)
DLK = DLK (Homo sapiens, UniProt Q12852)
EGFR(G719S) = target: T2, EGFR(G719S) (Homo sapiens, UniProt P00533, G719S)
T2 construct: purchased Eurofins DiscoverX (KINOMEscan service)

EPHB3 = target: T3, EPHB3 (Homo sapiens, UniProt P54753)
T3 construct: purchased Eurofins DiscoverX (KINOMEscan service)

ERK3 = target: T4, ERK3 (Homo sapiens, UniProt Q16659)
T4 construct: purchased Eurofins DiscoverX Corporation

ERK5 = target: T5, ERK5 (Homo sapiens, UniProt Q13164)
T5 construct: purchased Eurofins DiscoverX Corporation
T5 sequence (Q13164 whole entry): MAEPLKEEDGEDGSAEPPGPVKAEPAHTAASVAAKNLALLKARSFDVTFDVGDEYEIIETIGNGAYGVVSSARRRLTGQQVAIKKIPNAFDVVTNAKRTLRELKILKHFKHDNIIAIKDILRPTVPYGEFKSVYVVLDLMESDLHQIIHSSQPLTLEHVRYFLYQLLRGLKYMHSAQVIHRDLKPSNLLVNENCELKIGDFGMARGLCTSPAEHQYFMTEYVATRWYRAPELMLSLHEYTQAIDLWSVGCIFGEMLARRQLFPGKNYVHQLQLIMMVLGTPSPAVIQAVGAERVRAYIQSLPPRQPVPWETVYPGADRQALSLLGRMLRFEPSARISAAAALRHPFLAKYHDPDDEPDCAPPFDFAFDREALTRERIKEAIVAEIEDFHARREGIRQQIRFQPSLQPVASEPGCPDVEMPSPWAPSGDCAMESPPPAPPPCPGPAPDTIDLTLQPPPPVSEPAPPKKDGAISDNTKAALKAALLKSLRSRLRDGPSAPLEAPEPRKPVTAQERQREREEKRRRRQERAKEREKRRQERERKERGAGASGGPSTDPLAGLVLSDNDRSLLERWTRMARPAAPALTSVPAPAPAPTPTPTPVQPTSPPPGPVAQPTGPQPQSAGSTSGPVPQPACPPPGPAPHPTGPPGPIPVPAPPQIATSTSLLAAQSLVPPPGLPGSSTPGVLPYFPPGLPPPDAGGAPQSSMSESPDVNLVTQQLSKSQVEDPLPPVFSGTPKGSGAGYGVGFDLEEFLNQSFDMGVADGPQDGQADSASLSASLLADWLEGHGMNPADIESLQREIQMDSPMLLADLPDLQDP

HASPIN = target: T6, HASPIN (Homo sapiens, UniProt Q8TF76)
T6 construct: purchased Eurofins DiscoverX Corporation
T6 sequence (Q8TF76 whole entry): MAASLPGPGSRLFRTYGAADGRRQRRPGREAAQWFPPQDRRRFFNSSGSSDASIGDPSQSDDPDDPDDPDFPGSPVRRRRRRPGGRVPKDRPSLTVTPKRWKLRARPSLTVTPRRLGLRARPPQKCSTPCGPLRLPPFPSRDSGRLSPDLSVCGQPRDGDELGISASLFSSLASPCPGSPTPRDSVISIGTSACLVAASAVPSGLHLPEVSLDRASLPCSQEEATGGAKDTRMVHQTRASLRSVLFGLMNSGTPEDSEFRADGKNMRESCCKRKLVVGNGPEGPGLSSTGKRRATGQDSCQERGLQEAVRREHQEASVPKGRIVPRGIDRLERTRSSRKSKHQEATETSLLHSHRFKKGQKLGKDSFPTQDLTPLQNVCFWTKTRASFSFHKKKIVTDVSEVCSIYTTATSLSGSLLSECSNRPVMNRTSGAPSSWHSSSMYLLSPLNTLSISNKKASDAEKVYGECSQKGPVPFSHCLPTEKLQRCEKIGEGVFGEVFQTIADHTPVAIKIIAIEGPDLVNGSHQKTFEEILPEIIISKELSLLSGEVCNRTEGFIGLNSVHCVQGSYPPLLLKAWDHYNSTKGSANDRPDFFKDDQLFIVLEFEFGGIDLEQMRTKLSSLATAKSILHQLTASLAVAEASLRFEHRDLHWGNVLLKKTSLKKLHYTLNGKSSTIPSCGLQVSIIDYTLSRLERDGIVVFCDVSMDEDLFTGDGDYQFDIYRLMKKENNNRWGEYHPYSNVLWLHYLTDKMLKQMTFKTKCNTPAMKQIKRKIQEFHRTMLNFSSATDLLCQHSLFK

HIPK2 = target: T7, HIPK2 (Homo sapiens, UniProt Q9H2X6)
T7 construct: purchased Eurofins DiscoverX Corporation

HUNK = HUNK (Homo sapiens, UniProt P57058)
IKK-beta = IKK-beta (Homo sapiens, UniProt O14920)
ITK = ITK (Homo sapiens, UniProt Q08881)
[1] = target: JAK2(JH1domain-catalytic) (Homo sapiens, UniProt O60674)
LATS1 = LATS1 (Homo sapiens, UniProt O95835)
MEK6 = MEK6 (Homo sapiens, UniProt P52564)
MYLK2 = MYLK2 (Homo sapiens, UniProt Q9H1R3)
NEK4 = NEK4 (Homo sapiens, UniProt P51957)
Sequence of NEK4 (P51957 whole entry): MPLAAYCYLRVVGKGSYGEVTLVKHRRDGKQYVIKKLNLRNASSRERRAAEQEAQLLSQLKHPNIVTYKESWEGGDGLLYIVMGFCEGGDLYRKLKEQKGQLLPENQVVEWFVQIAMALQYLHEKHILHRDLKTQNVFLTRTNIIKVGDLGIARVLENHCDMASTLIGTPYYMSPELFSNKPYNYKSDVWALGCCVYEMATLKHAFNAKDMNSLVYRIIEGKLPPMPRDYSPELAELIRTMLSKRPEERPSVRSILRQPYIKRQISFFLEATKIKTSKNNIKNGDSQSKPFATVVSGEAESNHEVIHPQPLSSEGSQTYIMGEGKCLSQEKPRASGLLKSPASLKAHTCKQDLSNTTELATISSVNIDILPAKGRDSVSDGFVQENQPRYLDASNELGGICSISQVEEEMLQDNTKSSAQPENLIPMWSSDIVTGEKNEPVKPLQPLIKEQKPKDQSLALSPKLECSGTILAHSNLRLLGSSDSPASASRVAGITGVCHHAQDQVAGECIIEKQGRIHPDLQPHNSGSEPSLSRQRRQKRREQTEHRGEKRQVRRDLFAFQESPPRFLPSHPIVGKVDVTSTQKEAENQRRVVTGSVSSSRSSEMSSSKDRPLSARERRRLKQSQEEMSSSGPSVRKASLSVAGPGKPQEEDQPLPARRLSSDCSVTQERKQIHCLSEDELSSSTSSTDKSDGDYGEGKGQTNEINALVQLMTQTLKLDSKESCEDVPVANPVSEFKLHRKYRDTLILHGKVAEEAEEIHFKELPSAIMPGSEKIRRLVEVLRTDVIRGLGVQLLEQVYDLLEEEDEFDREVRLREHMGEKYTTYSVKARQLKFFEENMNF

NLK = target: T8, NLK (Homo sapiens, UniProt Q9UBE8)
T8 construct: purchased Eurofins DiscoverX Corporation (KINOMEscan)

PAK2 = target: T9, PAK2 (Homo sapiens, UniProt Q13177)
T9 construct: purchased Eurofins DiscoverX Corporation (KINOMEscan)

PAK6 = target: T10, PAK6 (Homo sapiens, UniProt Q9NQU5)
T10 construct: purchased Eurofins DiscoverX Corporation (KINOMEscan)

PCTK3 = target: T11, PCTK3 (Homo sapiens, UniProt Q07002)
T11 construct: purchased Eurofins DiscoverX Corporation (KINOMEscan)

PDGFRA = target: T12, PDGFRA (Homo sapiens, UniProt P16234)
T12 construct: purchased Eurofins DiscoverX Corporation (KINOMEscan)

PHKG2 = PHKG2 (Homo sapiens, UniProt P15735)
Sequence of PHKG2 (P15735 whole entry): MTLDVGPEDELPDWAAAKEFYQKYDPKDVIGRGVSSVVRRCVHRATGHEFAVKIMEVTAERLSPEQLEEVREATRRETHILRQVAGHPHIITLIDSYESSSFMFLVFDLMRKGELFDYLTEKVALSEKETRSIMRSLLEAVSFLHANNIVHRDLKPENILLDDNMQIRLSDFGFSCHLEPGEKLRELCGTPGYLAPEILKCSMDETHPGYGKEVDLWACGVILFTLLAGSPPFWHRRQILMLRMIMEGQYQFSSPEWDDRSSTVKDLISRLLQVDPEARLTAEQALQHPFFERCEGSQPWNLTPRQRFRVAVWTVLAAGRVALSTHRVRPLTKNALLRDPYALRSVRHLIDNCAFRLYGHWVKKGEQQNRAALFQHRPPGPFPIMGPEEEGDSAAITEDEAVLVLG

PIK3C2B = PIK3C2B (Homo sapiens, UniProt O00750)
PIK3CA = PIK3CA (Homo sapiens, UniProt P42336)
PIK3CA(Q546K) = PIK3CA(Q546K) (Homo sapiens, UniProt P42336, Q546K)
PRKCD = PRKCD (Homo sapiens, UniProt Q05655)
Sequence of PRKCD (Q05655 whole entry): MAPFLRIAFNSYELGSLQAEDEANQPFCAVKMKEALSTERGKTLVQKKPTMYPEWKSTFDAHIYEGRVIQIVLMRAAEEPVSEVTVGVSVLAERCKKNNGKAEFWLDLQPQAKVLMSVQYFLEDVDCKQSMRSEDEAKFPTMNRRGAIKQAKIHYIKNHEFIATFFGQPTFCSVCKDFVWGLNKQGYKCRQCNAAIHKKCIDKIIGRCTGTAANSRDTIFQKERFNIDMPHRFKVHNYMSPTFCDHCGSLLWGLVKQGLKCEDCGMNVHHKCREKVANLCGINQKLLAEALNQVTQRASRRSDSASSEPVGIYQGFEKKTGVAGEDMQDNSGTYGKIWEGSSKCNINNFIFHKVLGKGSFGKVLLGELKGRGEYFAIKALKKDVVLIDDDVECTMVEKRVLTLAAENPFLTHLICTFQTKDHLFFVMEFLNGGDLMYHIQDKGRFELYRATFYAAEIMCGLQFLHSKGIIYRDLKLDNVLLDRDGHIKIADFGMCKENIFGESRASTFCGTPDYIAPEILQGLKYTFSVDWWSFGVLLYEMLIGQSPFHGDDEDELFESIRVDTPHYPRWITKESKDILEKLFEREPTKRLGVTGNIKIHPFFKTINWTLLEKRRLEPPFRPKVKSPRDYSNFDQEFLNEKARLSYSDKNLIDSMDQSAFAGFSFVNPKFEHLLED

RAF1 = target: T13, RAF1 (Homo sapiens, UniProt P04049)
T13 construct: purchased Eurofins DiscoverX Corporation (KINOMEscan screening service)

[2] = target: T14, RSK3(Kin.Dom.2-C-terminal) (Homo sapiens, UniProt Q15349)
T14 construct: RSK3(Kin.Dom.2-C-terminal); purchased Eurofins DiscoverX (KINOMEscan service)
T14 sequence (Q15349 415-672 limits assumed): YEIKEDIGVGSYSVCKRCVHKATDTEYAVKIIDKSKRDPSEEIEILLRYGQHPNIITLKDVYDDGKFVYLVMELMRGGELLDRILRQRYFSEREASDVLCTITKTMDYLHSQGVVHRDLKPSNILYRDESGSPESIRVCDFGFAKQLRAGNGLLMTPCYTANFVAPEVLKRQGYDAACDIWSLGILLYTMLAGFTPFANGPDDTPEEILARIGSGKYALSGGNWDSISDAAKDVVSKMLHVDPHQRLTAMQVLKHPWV

SBK1 = target: T15, SBK1 (Homo sapiens, UniProt Q52WX2)
T15 construct: purchased Eurofins DiscoverX (KINOMEscan service)

TLK1 = target: T16, TLK1 (Homo sapiens, UniProt Q9UKI8)
T16 construct: purchased Eurofins DiscoverX Corporation

ULK3 = target: T17, ULK3 (Homo sapiens, UniProt Q6PHR2)
T17 construct: purchased Eurofins DiscoverX

VRK2 = target: T18, VRK2 (Homo sapiens, UniProt Q86Y07)
T18 construct: purchased Eurofins DiscoverX

WNK2 = target: T19, WNK2 (Homo sapiens, UniProt Q9Y3S1)
T19 construct: purchased Eurofins DiscoverX

YES = target: T20, YES (Homo sapiens, UniProt P07947)
T20 construct: purchased Eurofins DiscoverX

YSK4 = target: T21, YSK4 (Homo sapiens, UniProt Q56UN5)
T21 construct: purchased Eurofins DiscoverX

T1 sequence (P00519 whole entry): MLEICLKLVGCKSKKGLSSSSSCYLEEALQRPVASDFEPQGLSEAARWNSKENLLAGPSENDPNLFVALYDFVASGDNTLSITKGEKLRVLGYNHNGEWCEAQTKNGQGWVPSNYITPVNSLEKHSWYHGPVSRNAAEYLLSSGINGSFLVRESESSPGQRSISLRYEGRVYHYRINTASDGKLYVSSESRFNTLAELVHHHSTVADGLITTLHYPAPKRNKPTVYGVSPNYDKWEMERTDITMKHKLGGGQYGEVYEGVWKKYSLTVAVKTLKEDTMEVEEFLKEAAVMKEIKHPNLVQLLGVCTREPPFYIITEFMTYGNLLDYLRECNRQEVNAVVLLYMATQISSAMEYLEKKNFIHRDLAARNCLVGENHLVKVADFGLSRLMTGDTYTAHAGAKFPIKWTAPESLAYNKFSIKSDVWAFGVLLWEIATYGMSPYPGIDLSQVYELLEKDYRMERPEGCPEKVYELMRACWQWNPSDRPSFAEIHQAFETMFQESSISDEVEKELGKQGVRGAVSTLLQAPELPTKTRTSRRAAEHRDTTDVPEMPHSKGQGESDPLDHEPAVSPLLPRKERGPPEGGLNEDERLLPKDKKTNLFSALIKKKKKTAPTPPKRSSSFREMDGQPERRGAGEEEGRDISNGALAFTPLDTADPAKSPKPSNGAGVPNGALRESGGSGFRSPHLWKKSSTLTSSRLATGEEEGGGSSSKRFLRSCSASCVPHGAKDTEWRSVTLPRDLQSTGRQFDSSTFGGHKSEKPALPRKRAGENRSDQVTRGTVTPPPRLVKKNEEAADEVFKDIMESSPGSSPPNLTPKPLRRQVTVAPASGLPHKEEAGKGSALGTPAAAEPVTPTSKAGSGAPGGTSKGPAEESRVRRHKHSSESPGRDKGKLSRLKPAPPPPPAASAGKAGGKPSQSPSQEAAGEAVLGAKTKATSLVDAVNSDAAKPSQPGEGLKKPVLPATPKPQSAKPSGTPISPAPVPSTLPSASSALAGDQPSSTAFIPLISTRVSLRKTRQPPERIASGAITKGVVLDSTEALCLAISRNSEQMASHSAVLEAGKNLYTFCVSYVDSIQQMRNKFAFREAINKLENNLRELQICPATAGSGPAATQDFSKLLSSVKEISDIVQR

SMILES: C=CC(=O)Nc1ccc(OC)c(Nc2cc(-c3[nH]c(CC)nc3-c3cccc(NC(=O)c4cccc5c4NC(=O)c4ccccc4N5)c3)ccn2)c1 [Compound 4, N-(3-(5-(2-((5-Acrylamido-2-methoxyphenyl)amino)pyridin-4-yl)-2-ethyl-1H-imidazol-4-yl)phenyl)-11-oxo-10,11-dihydro-5H-dibenzo[b,e][1,4]diazepine-9-carboxamide]
- remaining binding at 1 µM (ABL1-phosphorylated): 80%
- remaining binding at 1 µM (ASK2): 100%
- remaining binding at 1 µM (BTK): 54%
- remaining binding at 1 µM (CAMK2D): 88%
- remaining binding at 1 µM (CLK4): 100%
- remaining binding at 1 µM (DLK): 100%
- remaining binding at 1 µM (EGFR(G719S)): 13%
- remaining binding at 1 µM (EPHB3): 100%
- remaining binding at 1 µM (ERK3): 100%
- remaining binding at 1 µM (ERK5): 100%
- remaining binding at 1 µM (HASPIN): 100%
- remaining binding at 1 µM (HIPK2): 100%
- remaining binding at 1 µM (HUNK): 32%
- remaining binding at 1 µM (IKK-beta): 88%
- remaining binding at 1 µM (ITK): 87%
- remaining binding at 1 µM [1]: 86%
- remaining binding at 1 µM (LATS1): 100%
- remaining binding at 1 µM (MEK6): 73%
- remaining binding at 1 µM (MYLK2): 84%
- remaining binding at 1 µM (NEK4): 100%
- remaining binding at 1 µM (NLK): 48%
- remaining binding at 1 µM (PAK2): 100%
- remaining binding at 1 µM (PAK6): 93%
- remaining binding at 1 µM (PCTK3): 93%
- remaining binding at 1 µM (PDGFRA): 69%
- remaining binding at 1 µM (PHKG2): 73%
- remaining binding at 1 µM (PIK3C2B): 74%
- remaining binding at 1 µM (PIK3CA): 70%
- remaining binding at 1 µM (PIK3CA(Q546K)): 100%
- remaining binding at 1 µM (PRKCD): 55%
- remaining binding at 1 µM (RAF1): 73%
- remaining binding at 1 µM [2]: 80%
- remaining binding at 1 µM (SBK1): 84%
- remaining binding at 1 µM (TLK1): 87%
- remaining binding at 1 µM (ULK3): 100%
- remaining binding at 1 µM (VRK2): 100%
- remaining binding at 1 µM (WNK2): 62%
- remaining binding at 1 µM (YES): 20%
- remaining binding at 1 µM (YSK4): 88%
